Patent US20070060586A1, “Nitrooxyderivatives of antihypertensive drugs” (priority 2003, published 2007)
pEC50: −log10 of the molar value. Structures can show the parent of a compound that is named as a salt.

Tested on: PC12 cells
Assay: Measurements of cGMP in rat PC12 cell line (intracellular cGMP formation, enzyme immunoassay)
Assay type: cell-based
Settings: for pEC50: PC-12, 0.75 h
Description: Measurements of CGMP in Rat PC12 Cell Line.
cGMP contributes to the function and interaction of several vascular cell types and its dysfunction is involved in major cardiovascular diseases such as hypertension, diabetic complications, atherosclerosis, and tissue infarction. Therefore the extent of cGMP formation elicited by the compounds of the inventions was evaluated in the rat pheochromocytoma (PC12) cell line.
Cells were maintained at 37° C. in DMEM medium enriched with 10% horse serum and 5% foetal bovine serum under 5% CO2 atmosphere. At the time of experiments the cells were washed once with Hank's Balanced Salt Solution (HBSS) supplemented with 0.05% ascorbic acid and preincubated in the same buffer for 10 min in a floating water bath. After the preincubation step, cells were exposed for additional 45 min to either control conditions or increasing concentrations of test compounds ranging from 0.1 to 25 μM, in the presence of the phosphodiesterase inhibitor, IBMX (100 μM) and the NO-independent activator of soluble guanylyl cyclase, YC-1 (20 μM). The reaction was terminated by the removal of the incubating buffer and consecutive addition of 100 μl of absolute ethanol. The organic extracts were then evaporated to dryness and the residues dissolved in aqueous buffer for quantitative determination of intracellular cGMP levels using the cGMP enzyme immunoassay kit.
The obtained results reported in Table 1 are expressed as EC50 (μM) and efficacy Emax (% of vehicle). As shown in the table the nitroderivatives of timolol elicited consistent increase of intracellular cGMP formation in PC12 cell line.

[1] = 45 min exposure, 0.1 to 25 μM, in the presence of IBMX (100 μM) and YC-1 (20 μM)

| pEC50 [1] | EC50, cGMP formation in PC12 cells [1] | SMILES | Emax (% of vehicle), cGMP formation in PC12 cells [1] | increase of intracellular cGMP formation in PC12 cell line (in words) (summary statement to Table 1) |
| --- | --- | --- | --- | --- |
| 4.73 | – | CC(C)(C)N(C[C@H](O)COc1nsnc1N1CCOCC1)C(=O)c1ccc(CO[N+](=O)[O-])cc1 [Compound of example 3, (S)-1-[(1,1-dimethylethyl)[(4-nitrooxymethyl)benzoyl]amino]-3-[[4-(4-morpholinyl)-1,2,5-thiadiazol-3-yl]oxy]-2-propanol] | 866 % of vehicle | – |
| – | Not effective | CC(C)(C)NC[C@H](O)COc1nsnc1N1CCOCC1 [Timolol, reference compound] | Not effective | this effect was not shared |
| 4.90 | – | CC(C)(C)NC[C@@H](COc1nsnc1N1CCOCC1)OC(=O)c1ccc(CO[N+](=O)[O-])cc1 [Compound of example 1, 4-(Nitrooxymethyl)benzoic acid (S)-1-[(1,1-dimethylethyl)amino]-3-[[4-(4-morpholinyl)-1,2,5thiadiazol-3-yl]oxy]-2-propanoate maleate salt] | – | – |

Further lines, the compound ahead of its results:

| SMILES | pEC50 [1] | EC50, cGMP formation in PC12 cells [1] | Emax (% of vehicle), cGMP formation in PC12 cells [1] | increase of intracellular cGMP formation in PC12 cell line (in words) (summary statement to Table 1) |
| --- | --- | --- | --- | --- |
| CC(C)(C)NCC(COc1nsnc1N1CCOCC1)OC(=O)c1ccc(CO[N+](=O)[O-])cc1.O=C(O)/C=C\C(=O)O [Compound of example 1, 4-(Nitrooxymethyl)benzoic acid (S)-1-[(1,1-dimethylethyl)amino]-3-[[4-(4-morpholinyl)-1,2,5thiadiazol-3-yl]oxy]-2-propanoate maleate salt] | – | – | 796 % of vehicle | – |
| CC(C)(C)N(CC(COc1nsnc1N1CCOCC1)OC(=O)c1ccc(CO[N+](=O)[O-])cc1)C(=O)c1ccc(CO[N+](=O)[O-])cc1 [Compound of example 2, 4-(Nitrooxymethyl)benzoic acid (S)-1-[(1,1-dimethylethyl)[(4-nitrooxymethyl)benzoyl]amino]-3-[[4-(4-morpholinyl)-1,2,5-thiadiazol-3-yl]oxy]-2-propanoate] | 5.89 | – | 480 % of vehicle | – |
